Assay results reported in patent publication US11028093B2, “4,6-substituted-pyrazolo[1,5-a]pyrazines as janus kinase inhibitors” (Array BioPharma Inc., priority 2014, dated 2021).
Like-named read-outs stand apart in the source and are kept apart here.

How the values were obtained:
Type in all cases: biochemical
JAK3 = JAK3 (Homo sapiens (Human), UniProt P52333); assay: JAK3 Inhibition Assay (Omnia kinase fluorescence peptide substrate assay, 1 mM ATP)
From the text: (§1) The assays described in Examples A, B, C and D for the determination of Tyk2, JAK1, JAK2 and JAK3 kinase activity, respectively, utilized the Omnia® Kinase fluorescence peptide substrate-based technology (Invitrogen). The specific components of the assay mixture are described in Examples A, B, C and D. In these assays, Mg^2+ is chelated upon phosphorylation of the Omnia peptide by the kinase to form a bridge between the chelation-enhanced fluorophore Sox and the phosphate, resulting in an increase in fluorescence emission at 485 nm when excited at […]. The reactions were therefore read at excitation 360 nm and emission was measured at 485 nm every 50 seconds for 45 minutes using a PerkinElmer EnVision Multilabel Plate Reader.
(§2) The final buffer conditions for Tyk2, JAK1, JAK2, and JAK3 assays were as follows: 25 mM HEPES, pH 7.4, 10 mM MgCl2, 0.01% Triton X-100 and 1 mM DTT.
(§3) Two-μL aliquots of these were transferred to a fresh plate for a ten-fold intermediate dilution with assay buffer. Five-μL aliquots of the diluted compounds were then transferred to 20-μL of assay mixtures described in Examples A, B, C and D for a final concentration of DMSO of 2%. […] For each plate, percent of control (POC) values were calculated for each well according to the following equation:
(§4) where Xmax=Average Uninhibited Controls • Xmin=Average Background IC50's were estimated from the POC's using a standard 4-parameter logistic model:
(§5) where A=Minimum Y (Bottom Asymptote) • B=Maximum Y (Top Asymptote) • C=EC50 • D=Slope Factor • X=Compound Concentration (nM) • Y=POC
(§6) The IC50 is defined as the concentration of inhibitor at which the POC equals 50 for the fitted curve.
(§7) Compounds of Formula I were screened for their ability to inhibit JAK3 using the general enzyme inhibition assay method, in which the assay mixture contained 1 mM ATP, 10 μM Omnia® Y7 peptide (Catalog # IVGN KNZ3071C, Invitrogen Corporation, Carlsbad, Calif.) and 2 nM JAK3 in a total volume of 25 μL. JAK3 was purchased from Invitrogen Corporation, Carlsbad, Calif. (catalog # IVGN PV4080).

JAK2 = JAK2 (Homo sapiens (Human), UniProt O60674); assay: JAK2 Inhibition Assay (Omnia kinase fluorescence peptide substrate assay, 1 mM ATP)
From the text: as §1, §2, §3, §4, §5, §6
as §7, with “inhibit JAK2” for “inhibit JAK3”, “and 4” for “and 2”, “nM JAK2” for “nM JAK3”, “μL. JAK2” for “μL. JAK3”, “IVGN PV4288).” for “IVGN PV4080).”

Human Tyk2 kinase domain = Human Tyk2 kinase domain (Homo sapiens (Human), UniProt P29597); assay: Tyk2 Inhibition Assay (Omnia kinase fluorescence peptide substrate assay, 1 mM ATP)
From the text: as §1, §2, §3, §4, §5, §6
Compounds of Formula I were screened for their ability to inhibit Tyk2 using the general enzyme inhibition assay method, in which the assay mixture contained 1 mM ATP, 8 μM Omnia® Y12 peptide (Catalog # IVGN KPZ3121C; Invitrogen Corporation, Carlsbad, Calif.) and 1 nM Tyk2 in a total volume of 25 μL. […]

JAK1 = JAK1 (Homo sapiens (Human), UniProt P23458); assay: JAK1 Inhibition Assay (Omnia kinase fluorescence peptide substrate assay, 1 mM ATP)
From the text: as §1, §2
as §3, with “equation: […]” for “equation:”

[1] = read-out: JAK2 Enzyme IC50 1 mM ATP, 1 mM ATP, averaged IC50 ranges
[2] = read-out: TYK2 Enzyme IC50 1 mM ATP, 1 mM ATP, averaged IC50 ranges

Chain of JAK3 (P52333 781-1124): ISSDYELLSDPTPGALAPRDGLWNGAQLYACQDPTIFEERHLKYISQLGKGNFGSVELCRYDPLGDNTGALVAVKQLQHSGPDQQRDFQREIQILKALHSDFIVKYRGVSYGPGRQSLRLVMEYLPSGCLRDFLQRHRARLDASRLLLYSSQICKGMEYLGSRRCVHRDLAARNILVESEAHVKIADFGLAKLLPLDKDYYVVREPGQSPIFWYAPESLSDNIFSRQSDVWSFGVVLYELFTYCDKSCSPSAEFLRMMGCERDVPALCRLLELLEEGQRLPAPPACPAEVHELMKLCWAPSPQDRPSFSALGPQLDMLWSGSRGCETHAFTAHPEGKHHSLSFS
Chain of JAK2 (O60674 808-1132): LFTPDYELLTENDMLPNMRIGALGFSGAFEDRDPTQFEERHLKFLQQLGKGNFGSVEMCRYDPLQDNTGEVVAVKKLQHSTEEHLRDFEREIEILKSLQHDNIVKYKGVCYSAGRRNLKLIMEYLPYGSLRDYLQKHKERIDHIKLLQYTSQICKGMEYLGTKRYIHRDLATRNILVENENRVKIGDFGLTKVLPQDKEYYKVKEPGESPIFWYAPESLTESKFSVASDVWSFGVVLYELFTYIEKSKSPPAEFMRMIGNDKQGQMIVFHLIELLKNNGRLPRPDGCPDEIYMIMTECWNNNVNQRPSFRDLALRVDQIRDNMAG
Chain of Human Tyk2 kinase domain (P29597 886-1187): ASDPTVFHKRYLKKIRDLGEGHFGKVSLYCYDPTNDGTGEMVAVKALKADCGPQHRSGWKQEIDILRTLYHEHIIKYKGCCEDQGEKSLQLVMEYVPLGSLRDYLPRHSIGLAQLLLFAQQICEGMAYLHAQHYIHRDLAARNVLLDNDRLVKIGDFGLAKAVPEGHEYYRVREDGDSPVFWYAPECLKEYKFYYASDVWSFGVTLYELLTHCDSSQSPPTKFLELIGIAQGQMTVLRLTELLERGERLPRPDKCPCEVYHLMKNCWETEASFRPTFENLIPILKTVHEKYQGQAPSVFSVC
Chain of JAK1 (P23458 866-1154): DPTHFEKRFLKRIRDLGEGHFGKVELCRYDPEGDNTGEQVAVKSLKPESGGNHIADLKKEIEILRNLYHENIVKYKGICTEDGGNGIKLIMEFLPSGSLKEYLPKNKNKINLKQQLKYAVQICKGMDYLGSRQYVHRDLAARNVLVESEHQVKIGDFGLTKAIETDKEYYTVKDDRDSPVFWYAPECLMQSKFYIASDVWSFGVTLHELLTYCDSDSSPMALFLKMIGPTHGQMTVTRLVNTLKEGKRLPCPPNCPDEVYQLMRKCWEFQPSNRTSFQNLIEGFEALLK

CCC(CC)n1cc(-c2nc(-c3cnn([C@H]4CC[C@H](O)CC4)c3)cn3nccc23)cn1 [Example 118, trans-4-(4-(4-(1-(pentan-3-yl)-1H-pyrazol-4-yl)pyrazolo[1,5-a]pyrazin-6-yl)-1H-pyrazol-1-yl)cyclohexanol] gave an IC50 (JAK3) of 1000 to 10000 nM.

CCC1(n2cc(-c3nc(-c4cnn(C)c4)cn4nccc34)cn2)CN(S(=O)(=O)C(F)(F)F)C1 [Example 48, 4-(1-(3-ethyl-1-((trifluoromethyl)sulfonyl)azetidin-3-yl)-1H-pyrazol-4-yl)-6-(1-methyl-1H-pyrazol-4-yl)pyrazolo[1,5-a]pyrazine] gave an IC50 (JAK2; [1]) of under 10 nM and an IC50 (Human Tyk2 kinase domain; [2]) of under 10 nM.

CCC(CC)n1cc(-c2nc(-c3cnn([C@H]4CC[C@@H](O)CC4)c3)cn3nccc23)cn1 [Example 121, cis-4-(4-(4-(1-(pentan-3-yl)-1H-pyrazol-4-yl)pyrazolo[1,5-a]pyrazin-6-yl)-1H-pyrazol-1-yl)cyclohexanol] gave an IC50 (JAK3) of 1000 to 10000 nM.

Compound CCC(CC)n1cc(-c2nc(-c3cnn([C@H]4C[C@@](C)(O)C4)c3)cn3nccc23)cn1 [Example 162, (1s,3 s)-1-methyl-3-(4-(4-(1-(pentan-3-yl)-1H-pyrazol-4-yl)pyrazolo[1,5-a]pyrazin-6-yl)-1H-pyrazol-1-yl)cyclobutanol] has an IC50 (JAK3) of 1000 to 10000 nM.

CCC(CC)n1cc(-c2nc(-c3cnn(C4CN(S(C)(=O)=O)C4)c3)cn3nccc23)cn1 [Example 37, 6-(1-(1-(methylsulfonyl)azetidin-3-yl)-1H-pyrazol-4-yl)-4-(1-(pentan-3-yl)-1H-pyrazol-4-yl)pyrazolo[1,5-a]pyrazine] was tested, and the IC50 (JAK2; [1]) was under 10 nM.

Work on “(R)-3-(4-(4-(1-((S)-2,2-dimethylcyclopentyl)-1H-pyrazol-4-yl)pyrazolo[1,5-a]pyrazin-6-yl)-1H-pyrazol-1-yl)propane-1,2-diol [Example 95]” yielded an IC50 (JAK2; [1]) of 1000 to 10000 nM and an IC50 (Human Tyk2 kinase domain; [2]) of 1000 to 10000 nM.

“(1s,3s)-3-(4-(4-(1-(pentan- 3-yl)-1H-pyrazol-4- yl)pyrazolo[1,5-a]pyrazin- 6-yl)-1H-pyrazol-1-yl) cyclobutanecarboxamide [Example 168]” was tested, and the IC50 (JAK3; read-out: JAK3 Enzyme IC50 1 mM ATP, 1 mM ATP, averaged IC50 ranges) was 1000 to 10000 nM, the IC50 (JAK2; [1]) was 10 to 100 nM and the IC50 (JAK1; read-out: JAK1 Enzyme IC50 1 mM ATP, 1 mM ATP, averaged IC50 ranges) was 1000 to 10000 nM.

CC[C@@H](CC1CC1)n1cc(-c2nc(-c3cnn(C[C@@H](O)CO)c3)cn3nccc23)cn1 [Example 205, (R)-3-(4-(4-(1-((S)-1-cyclopropylbutan-2-yl)-1H-pyrazol-4-yl)pyrazolo[1,5-a]pyrazin-6-yl)-1H-pyrazol-1-yl)propane-1,2-diol] gave an IC50 (JAK3) of 1000 to 10000 nM, an IC50 (JAK2) of 10 to 100 nM and an IC50 (JAK1) of 100 to 1000 nM. It also gave an IC50 (Human Tyk2 kinase domain) of 10 to 100 nM.
